Reference: ChEMBL document CHEMBL1152079, “Synthesis and biological evaluation of novel 2-vinyl carbapenems. Remarkable DHP-1 stability of 1-substituted analogs” (1996)
In brackets after ≈: the same amount, converted by molar mass.

Tests used:
Pseudomonas aeruginosa = test: Compound was tested for its minimal inhibitory concentration against Pseudomonas aeruginosa 26; type: functional
Mus musculus [1] = test: Percent urinary recovery was measured in mice after subcutaneous administration at dose 20 mg/kg.; type: functional, organism-based; parameters: dose 20 mg/kg; details: Urine
Escherichia coli = test: Compound was tested for its minimal inhibitory concentration against Escherichia coli NIHJ JC-2; type: functional
Staphylococcus aureus [2] = test: Compound was tested for its minimal inhibitory concentration against Staphylococcus aureus 209 JC-1; type: functional
Proteus vulgaris = test: Compound was tested for its minimal inhibitory concentration against Proteus vulgaris IAM 1025; type: functional
Staphylococcus aureus [3] = test: Compound was tested for its minimal inhibitory concentration against Staphylococcus aureus 3004 (Methicillin resistant S. aureus); type: functional
[4] = biological target: T1, Dipeptidase 1 (Sus scrofa) (UniProt P22412); test: Susceptibility relative to imipenem was measured against Swine renal Dehydropeptidase-1
T1 sequence (whole entry): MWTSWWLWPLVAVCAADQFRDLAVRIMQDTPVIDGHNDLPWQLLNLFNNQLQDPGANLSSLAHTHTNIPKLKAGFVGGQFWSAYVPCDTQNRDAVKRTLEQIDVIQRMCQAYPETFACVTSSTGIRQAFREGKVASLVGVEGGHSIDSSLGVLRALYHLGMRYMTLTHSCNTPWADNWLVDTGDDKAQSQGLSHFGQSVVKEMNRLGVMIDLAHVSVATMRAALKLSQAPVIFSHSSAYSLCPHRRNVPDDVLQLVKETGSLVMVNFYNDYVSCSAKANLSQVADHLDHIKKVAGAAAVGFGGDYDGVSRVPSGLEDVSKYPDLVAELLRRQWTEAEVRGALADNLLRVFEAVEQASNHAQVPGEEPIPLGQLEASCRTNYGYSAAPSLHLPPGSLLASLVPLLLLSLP

[5] = biological target: Dipeptidase 1 (Homo sapiens) (UniProt P16444); test: Susceptibility relative to meropenem was measured against human Dehydropeptidase-1
Sequence of Dipeptidase 1 (Homo sapiens) (P16444 whole entry, looked up): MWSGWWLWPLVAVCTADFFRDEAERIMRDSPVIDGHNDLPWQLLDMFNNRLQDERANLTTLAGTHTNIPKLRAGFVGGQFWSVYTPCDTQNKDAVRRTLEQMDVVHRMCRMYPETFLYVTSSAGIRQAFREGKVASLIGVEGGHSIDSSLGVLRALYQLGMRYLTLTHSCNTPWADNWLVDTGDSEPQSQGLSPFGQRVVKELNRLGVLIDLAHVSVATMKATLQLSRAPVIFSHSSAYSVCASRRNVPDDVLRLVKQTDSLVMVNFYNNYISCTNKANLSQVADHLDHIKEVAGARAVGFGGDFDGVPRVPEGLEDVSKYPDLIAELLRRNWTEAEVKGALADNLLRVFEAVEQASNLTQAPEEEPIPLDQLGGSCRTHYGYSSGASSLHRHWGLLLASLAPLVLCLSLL

Cercopithecidae = test: Susceptibility relative to meropenem was measured against monkey DHP-1.
[6] = system: Dipeptidase 1 (Canis lupus familiaris); test: Susceptibility relative to meropenem was measured against dog Dehydropeptidase-1
Mus musculus [7] = species on record: Mus musculus; test: Susceptibility relative to meropenem was measured against mouse DHP-1.
Oryctolagus cuniculus = species on record: Oryctolagus cuniculus; test: Susceptibility relative to meropenem was measured against rabbit DHP-1.
[8] = biological target: Dipeptidase 1 (Rattus norvegicus) (UniProt P31430); test: Susceptibility relative to meropenem was measured against rat Dehydropeptidase-1
Sequence of Dipeptidase 1 (Rattus norvegicus) (P31430 whole entry, looked up): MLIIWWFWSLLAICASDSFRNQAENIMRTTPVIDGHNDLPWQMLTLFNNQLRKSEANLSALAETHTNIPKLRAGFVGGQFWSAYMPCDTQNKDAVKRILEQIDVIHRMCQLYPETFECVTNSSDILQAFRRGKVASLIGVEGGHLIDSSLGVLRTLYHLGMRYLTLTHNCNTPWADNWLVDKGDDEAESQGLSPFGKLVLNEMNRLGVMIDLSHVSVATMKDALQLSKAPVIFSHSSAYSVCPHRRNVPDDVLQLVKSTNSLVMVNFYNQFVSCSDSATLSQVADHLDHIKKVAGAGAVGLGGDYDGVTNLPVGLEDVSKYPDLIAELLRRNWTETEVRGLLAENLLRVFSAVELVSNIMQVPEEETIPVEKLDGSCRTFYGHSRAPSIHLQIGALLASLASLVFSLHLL

Structure (SMILES): C[C@@H](O)[C@H]1C(=O)N2C(C(=O)O)=C(/C(=C/[C@@H]3CCCN3)CN)C[C@H]12
- MIC (Pseudomonas aeruginosa): > 100 µg/mL
- Recovery (Mus musculus [1]): 52.1%
- MIC (Escherichia coli): 100 µg/mL (≈ 311 µM)
- MIC (Staphylococcus aureus [2]): 0.78 µg/mL (≈ 2.43 µM)
- MIC (Proteus vulgaris): > 100 µg/mL
- MIC (Staphylococcus aureus [3]): > 100 µg/mL
- Susceptibility [4]: 0.004

Structure (SMILES): C[C@@H](O)[C@H]1C(=O)N2C(C(=O)O)=C(/C=C/[C@@H]3CCCN3)[C@H](C)[C@H]12
- MIC (Pseudomonas aeruginosa): 3.13 µg/mL (≈ 10.2 µM)
- Recovery (Mus musculus [1]): 60.7%
- MIC (Escherichia coli): 0.78 µg/mL (≈ 2.55 µM)
- MIC (Staphylococcus aureus [2]): < 0.025 µg/mL
- MIC (Proteus vulgaris): 6.25 µg/mL (≈ 20.4 µM)
- MIC (Staphylococcus aureus [3]): 100 µg/mL (≈ 326 µM)
- Susceptibility [4]: 0.043

Structure (SMILES): C[C@@H](O)[C@H]1C(=O)N2C(C(=O)O)=C(SCCNC=N)C[C@H]12.O [IMIPENEM]
- MIC (Pseudomonas aeruginosa): 0.78 µg/mL
- Recovery (Mus musculus [1]): 28.9%
- MIC (Escherichia coli): 0.78 µg/mL
- MIC (Staphylococcus aureus [2]): < 0.025 µg/mL
- MIC (Proteus vulgaris): 3.13 µg/mL
- MIC (Staphylococcus aureus [3]): 100 µg/mL
- Susceptibility [4]: 1

Structure (SMILES): CSC/C(=C\[C@@H]1CCCN1)C1=C(C(=O)O)N2C(=O)[C@H]([C@@H](C)O)[C@H]2C1
- MIC (Pseudomonas aeruginosa): 25 µg/mL (≈ 70.9 µM)
- Recovery (Mus musculus [1]): 54.3%
- MIC (Escherichia coli): 0.78 µg/mL (≈ 2.21 µM)
- MIC (Staphylococcus aureus [2]): 0.1 µg/mL (≈ 0.284 µM)
- MIC (Proteus vulgaris): 3.13 µg/mL (≈ 8.88 µM)
- MIC (Staphylococcus aureus [3]): 100 µg/mL (≈ 284 µM)
- Susceptibility [4]: < 0.006

Structure (SMILES): C/C(=C\[C@@H]1CCCN1)C1=C(C(=O)O)N2C(=O)[C@H]([C@@H](C)O)[C@H]2C1
- Susceptibility [5]: 0.45
- Susceptibility (Cercopithecidae): 0.032
- Susceptibility [6]: 0.249
- MIC (Pseudomonas aeruginosa): 3.13 µg/mL (≈ 10.2 µM)
- Recovery (Mus musculus [1]): 67.8%
- Susceptibility (Mus musculus [7]): 0.45
- Susceptibility (Oryctolagus cuniculus): 0.015
- MIC (Escherichia coli): 0.39 µg/mL (≈ 1.27 µM)
- MIC (Staphylococcus aureus [2]): < 0.025 µg/mL
- MIC (Proteus vulgaris): 1.56 µg/mL (≈ 5.09 µM)
- MIC (Staphylococcus aureus [3]): 50 µg/mL (≈ 163 µM)
- Susceptibility [8]: 0.11
- Susceptibility [4]: 0.036

Structure (SMILES): C[C@@H](O)[C@H]1C(=O)N2C(C(=O)O)=C(/C=C/[C@@H]3CCCN3)C[C@H]12
- MIC (Pseudomonas aeruginosa): 3.13 µg/mL (≈ 10.7 µM)
- Recovery (Mus musculus [1]): 20.2%
- MIC (Escherichia coli): 1.56 µg/mL (≈ 5.34 µM)
- MIC (Staphylococcus aureus [2]): 0.1 µg/mL (≈ 0.342 µM)
- MIC (Proteus vulgaris): 1.56 µg/mL (≈ 5.34 µM)
- MIC (Staphylococcus aureus [3]): > 100 µg/mL
- Susceptibility [4]: 0.22

Structure (SMILES): COC/C(=C\[C@@H]1CCCN1)C1=C(C(=O)O)N2C(=O)[C@H]([C@@H](C)O)[C@H]2C1
- MIC (Pseudomonas aeruginosa): 25 µg/mL (≈ 74.3 µM)
- Recovery (Mus musculus [1]): 64.4%
- MIC (Escherichia coli): 0.78 µg/mL (≈ 2.32 µM)
- MIC (Staphylococcus aureus [2]): 0.2 µg/mL (≈ 0.595 µM)
- MIC (Proteus vulgaris): 50 µg/mL (≈ 149 µM)
- MIC (Staphylococcus aureus [3]): > 100 µg/mL
- Susceptibility [4]: < 0.008
